For 19 compounds, AC50 results are on record in ChEMBL document CHEMBL5291721, “A preclinical secondary pharmacology resource illuminates target-adverse drug reaction associations of marketed drugs” (Nat Commun, 2023).

Assay [1] has as its target T1, Alpha-1A adrenergic receptor (Homo sapiens, UniProt P35348).
T1 sequence (P35348 whole entry): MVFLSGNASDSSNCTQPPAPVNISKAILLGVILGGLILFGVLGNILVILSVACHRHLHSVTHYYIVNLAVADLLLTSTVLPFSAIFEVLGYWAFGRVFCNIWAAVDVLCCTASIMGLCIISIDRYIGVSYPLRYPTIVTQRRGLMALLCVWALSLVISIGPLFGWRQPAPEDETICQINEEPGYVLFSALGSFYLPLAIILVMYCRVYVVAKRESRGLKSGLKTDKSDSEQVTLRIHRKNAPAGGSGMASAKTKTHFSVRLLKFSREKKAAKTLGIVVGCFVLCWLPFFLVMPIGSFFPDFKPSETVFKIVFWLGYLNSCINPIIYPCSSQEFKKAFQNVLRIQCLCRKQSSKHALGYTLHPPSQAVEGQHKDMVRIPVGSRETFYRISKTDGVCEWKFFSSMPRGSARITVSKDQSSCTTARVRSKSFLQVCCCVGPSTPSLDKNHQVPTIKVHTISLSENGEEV

For assay [2], the target named is Beta-1 adrenergic receptor (Homo sapiens, UniProt P08588). The format is functional.
The target in assay [3] is T2, B2 bradykinin receptor (Homo sapiens, UniProt P30411).
T2 sequence (P30411 whole entry): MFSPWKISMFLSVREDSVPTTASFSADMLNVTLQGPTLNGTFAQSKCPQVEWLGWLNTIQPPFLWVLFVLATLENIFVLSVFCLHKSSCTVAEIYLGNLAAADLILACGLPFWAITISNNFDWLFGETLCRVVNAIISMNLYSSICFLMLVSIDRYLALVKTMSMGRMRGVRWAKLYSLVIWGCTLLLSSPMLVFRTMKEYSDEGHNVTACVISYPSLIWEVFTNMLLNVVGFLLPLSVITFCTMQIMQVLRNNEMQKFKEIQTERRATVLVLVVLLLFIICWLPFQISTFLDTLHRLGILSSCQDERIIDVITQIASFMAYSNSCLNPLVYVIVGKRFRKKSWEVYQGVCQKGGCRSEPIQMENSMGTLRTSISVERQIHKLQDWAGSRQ

Assay [4] addresses T3, Alpha-2C adrenergic receptor (Homo sapiens, UniProt P18825).
T3 sequence (P18825 whole entry): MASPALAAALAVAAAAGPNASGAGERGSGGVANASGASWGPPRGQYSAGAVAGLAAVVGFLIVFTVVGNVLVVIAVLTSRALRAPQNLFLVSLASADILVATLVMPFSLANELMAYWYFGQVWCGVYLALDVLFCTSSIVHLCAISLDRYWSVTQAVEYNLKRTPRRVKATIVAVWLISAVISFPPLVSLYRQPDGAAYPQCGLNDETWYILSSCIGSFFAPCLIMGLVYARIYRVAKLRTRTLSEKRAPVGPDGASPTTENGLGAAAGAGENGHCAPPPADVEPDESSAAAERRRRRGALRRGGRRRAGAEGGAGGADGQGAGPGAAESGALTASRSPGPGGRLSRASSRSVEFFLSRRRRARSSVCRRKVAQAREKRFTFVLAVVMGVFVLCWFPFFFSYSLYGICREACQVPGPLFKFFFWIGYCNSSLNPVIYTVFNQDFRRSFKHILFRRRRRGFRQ
The class given is functional.

For assay [5], the target named is T4, Thromboxane A2 receptor (Homo sapiens, UniProt P21731).
T4 sequence (P21731 whole entry): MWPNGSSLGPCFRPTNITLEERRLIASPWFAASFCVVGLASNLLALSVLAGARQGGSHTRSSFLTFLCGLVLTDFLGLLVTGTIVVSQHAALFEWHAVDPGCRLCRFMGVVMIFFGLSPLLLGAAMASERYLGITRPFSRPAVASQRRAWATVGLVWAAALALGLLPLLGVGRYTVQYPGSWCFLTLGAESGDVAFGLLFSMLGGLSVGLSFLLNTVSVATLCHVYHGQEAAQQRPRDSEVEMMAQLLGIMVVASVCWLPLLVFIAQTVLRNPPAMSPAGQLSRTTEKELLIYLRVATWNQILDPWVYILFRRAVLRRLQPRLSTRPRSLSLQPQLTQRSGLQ

Assay [6] deals with Mu-type opioid receptor (Homo sapiens, UniProt P35372).
Assay [7] concerns the target T5, 5-hydroxytryptamine receptor 1A (Homo sapiens, UniProt P08908).
T5 sequence (P08908 whole entry): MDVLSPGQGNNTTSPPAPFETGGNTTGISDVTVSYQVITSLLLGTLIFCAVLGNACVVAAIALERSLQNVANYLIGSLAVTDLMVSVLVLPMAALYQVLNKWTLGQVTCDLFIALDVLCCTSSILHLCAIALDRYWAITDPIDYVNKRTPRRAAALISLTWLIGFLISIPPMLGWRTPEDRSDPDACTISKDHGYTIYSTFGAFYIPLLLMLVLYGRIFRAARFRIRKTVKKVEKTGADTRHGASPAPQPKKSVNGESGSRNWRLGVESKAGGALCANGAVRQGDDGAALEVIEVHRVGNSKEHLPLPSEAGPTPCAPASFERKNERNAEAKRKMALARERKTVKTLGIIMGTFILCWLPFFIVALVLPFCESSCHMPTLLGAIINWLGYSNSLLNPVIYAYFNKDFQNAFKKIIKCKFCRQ
The format is functional, cell-based.

In assay [8] the target is T6, Muscarinic acetylcholine receptor M1 (Homo sapiens, UniProt P11229).
T6 sequence (P11229 whole entry): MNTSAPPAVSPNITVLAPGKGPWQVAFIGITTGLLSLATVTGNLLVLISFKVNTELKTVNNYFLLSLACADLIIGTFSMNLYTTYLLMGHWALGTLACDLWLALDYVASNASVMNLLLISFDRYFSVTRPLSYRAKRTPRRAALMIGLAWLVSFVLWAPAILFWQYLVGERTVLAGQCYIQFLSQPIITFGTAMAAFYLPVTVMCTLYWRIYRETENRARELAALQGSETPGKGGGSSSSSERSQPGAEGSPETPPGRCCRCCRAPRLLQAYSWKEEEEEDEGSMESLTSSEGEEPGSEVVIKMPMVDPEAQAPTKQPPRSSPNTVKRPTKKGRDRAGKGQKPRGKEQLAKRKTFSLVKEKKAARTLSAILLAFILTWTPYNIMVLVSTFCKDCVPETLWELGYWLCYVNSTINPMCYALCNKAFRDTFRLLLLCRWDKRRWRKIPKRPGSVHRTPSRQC
The format is functional.

Some results are limits rather than exact numbers.
Further: assay procedure not described here.

Chain of Mu-type opioid receptor (P35372 whole entry): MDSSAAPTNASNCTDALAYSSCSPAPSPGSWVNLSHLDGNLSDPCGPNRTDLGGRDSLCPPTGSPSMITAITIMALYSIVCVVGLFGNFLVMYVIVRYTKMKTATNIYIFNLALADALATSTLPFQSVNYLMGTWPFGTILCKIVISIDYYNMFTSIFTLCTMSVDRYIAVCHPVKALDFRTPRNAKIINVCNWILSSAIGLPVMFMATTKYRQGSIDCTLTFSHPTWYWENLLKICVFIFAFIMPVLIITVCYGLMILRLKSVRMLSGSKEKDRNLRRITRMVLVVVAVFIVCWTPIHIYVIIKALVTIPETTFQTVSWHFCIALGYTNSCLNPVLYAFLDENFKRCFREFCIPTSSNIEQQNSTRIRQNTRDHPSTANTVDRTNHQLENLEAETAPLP
Chain of Beta-1 adrenergic receptor (P08588 whole entry): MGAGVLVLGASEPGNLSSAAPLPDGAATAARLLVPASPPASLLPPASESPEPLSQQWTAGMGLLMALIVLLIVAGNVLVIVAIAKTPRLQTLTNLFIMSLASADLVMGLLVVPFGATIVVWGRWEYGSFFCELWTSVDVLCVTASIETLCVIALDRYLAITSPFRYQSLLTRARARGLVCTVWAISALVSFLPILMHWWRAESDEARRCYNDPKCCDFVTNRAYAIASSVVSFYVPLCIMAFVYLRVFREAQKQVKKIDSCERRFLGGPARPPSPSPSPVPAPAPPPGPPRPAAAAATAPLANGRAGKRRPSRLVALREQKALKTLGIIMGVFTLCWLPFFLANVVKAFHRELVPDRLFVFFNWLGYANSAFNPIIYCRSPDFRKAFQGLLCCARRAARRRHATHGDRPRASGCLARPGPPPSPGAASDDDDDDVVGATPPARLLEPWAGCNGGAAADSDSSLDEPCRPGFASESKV

Take `CC(=O)[C@@]1(O)CC[C@H]2[C@@H]3C[C@H](C)C4=CC(=O)C=C[C@]4(C)[C@@]3(F)[C@@H](O)C[C@@]21C` [FLUOROMETHOLONE]: the AC50 in assay [1] was more than 10 µM; in assay [2] it was more than 10 µM; in assay [3], more than 10 µM; in assay [4], more than 10 µM; in assay [5] it was more than 10 µM; in assay [6], more than 30 µM.
For the compound `Nc1cc(N2CCCCC2)nc(N)[n+]1[O-]` [MINOXIDIL], the AC50 in assay [1] was more than 10 µM; in assay [2], more than 30 µM; in assay [3] it was more than 30 µM; in assay [4] it was more than 10 µM; in assay [5] it was more than 30 µM; in assay [6], more than 30 µM.
For the compound `CCCO[C@H]1[C@@H]([C@@H](COCc2ccc(Cl)cc2)OCc2ccc(Cl)cc2)OC(OCC)[C@@H]1O` (stereo not given in full) [CLOBENOSIDE], the AC50 in assay [7], in assay [2], in assay [8], in assay [3], in assay [4] and in assay [5] was more than 30 µM each time.
For `COc1ccc(-n2nc(C(N)=O)c3c2C(=O)N(c2ccc(N4CCCCC4=O)cc2)CC3)cc1` [APIXABAN], the AC50 in assay [2], in assay [8], in assay [3], in assay [4] and in assay [6] was more than 30 µM throughout.
For the compound `COc1ccc2c3c1O[C@H]1C(=O)CC[C@H]4[C@@H](C2)N(C)CC[C@]314` [HYDROCODONE], the AC50 was more than 10 µM in assay [7]; more than 10 µM in assay [1]; more than 10 µM in assay [2]; more than 10 µM in assay [8]; more than 30 µM in assay [3]; more than 10 µM in assay [4]. The compound also gave an AC50 in assay [5] of more than 30 µM.
With `CC(C)(C)NCC(O)COc1cccc2c1CC(O)C(O)C2` (stereo not given) [NADOLOL], the AC50 was more than 10 µM in assay [1]; 0.102 µM in assay [2]; more than 10 µM in assay [3]; more than 10 µM in assay [4]; more than 10 µM in assay [5]; more than 30 µM in assay [6].
On to `CC(=O)N1CCN(c2ccc(OCC3COC(Cn4ccnc4)(c4ccc(Cl)cc4Cl)O3)cc2)CC1` (stereo not given) [KETOCONAZOLE], for which the AC50 in assay [1] was more than 10 µM; in assay [2], more than 10 µM; in assay [3] it was more than 10 µM; in assay [4], more than 10 µM; in assay [5] it was more than 10 µM; in assay [6], more than 30 µM.
As to `CC(NC(C)(C)C)C(=O)c1cccc(Cl)c1` (stereo not given) [BUPROPION], the AC50 in assay [7] is more than 10 µM; in assay [2] it was more than 10 µM; in assay [3] it was more than 30 µM; in assay [4], more than 10 µM; in assay [5], more than 30 µM; in assay [6], more than 10 µM.
Turning to `CCc1ccc(C(=O)C(C)CN2CCCCC2)cc1` (stereo not given) [EPERISONE], the AC50 in assay [1] was more than 30 µM; in assay [2], more than 30 µM; in assay [3], more than 30 µM; in assay [4] it was 2.09 µM; in assay [5], more than 30 µM.
`O=C(O[C@H]1C[N+]2(CCCOc3ccccc3)CCC1CC2)C(O)(c1cccs1)c1cccs1` [ACLIDINIUM BROMIDE]: the AC50 in assay [2] was more than 10 µM; in assay [8], 0.018 µM; in assay [3] it was more than 30 µM; in assay [4], 2.5 µM; in assay [5], more than 30 µM; in assay [6] it was more than 30 µM.
As to `CN1CCCN=C1/C=C/c1cccc(O)c1` [OXANTEL], the AC50 in assay [7], in assay [2], in assay [8], in assay [3], in assay [4] and in assay [5] was more than 30 µM in each case.
`COc1nc(C)nc(Cl)c1N=C1NCCN1` [MOXONIDINE]: the AC50 in assay [7], in assay [1], in assay [2], in assay [3] and in assay [5] was more than 30 µM in each case.
As to `CCCCCCOC(=O)NC(=N)c1ccc(NCc2nc3cc(C(=O)N(CCC(=O)OCC)c4ccccn4)ccc3n2C)cc1` [DABIGATRAN ETEXILATE], the AC50 in assay [2], in assay [8], in assay [3], in assay [4] and in assay [6] was more than 30 µM in each case.
In the case of `OCC(CO)N[C@H]1C[C@](O)(CO)[C@@H](O)[C@H](O)[C@H]1O` [VOGLIBOSE], the AC50 in assay [1], in assay [2], in assay [8], in assay [3], in assay [4] and in assay [5] was more than 30 µM each time.
`OCCN(CCO)c1nc(N2CCCCC2)c2nc(N(CCO)CCO)nc(N3CCCCC3)c2n1` [DIPYRIDAMOLE]: the AC50 in assay [7] was more than 10 µM; in assay [1], more than 30 µM; in assay [3], more than 30 µM; in assay [4], more than 30 µM; in assay [5], more than 30 µM.
In the case of `CC(C)CN(C[C@@H](O)[C@H](Cc1ccccc1)NC(=O)O[C@H]1CCOC1)S(=O)(=O)c1ccc(N)cc1`, the AC50 is more than 10 µM in assay [1]; more than 10 µM in assay [2]; more than 30 µM in assay [3]; more than 10 µM in assay [4]; more than 30 µM in assay [5]; more than 30 µM in assay [6].
As for SITOSTEROLS, the AC50 in assay [7], in assay [2], in assay [8], in assay [3], in assay [4] and in assay [5] was more than 30 µM throughout.
Regarding `Cc1ccc(S(=O)(=O)NC(=O)N[C@H]2[C@H]3CC[C@@](C)([C@H]2O)C3(C)C)cc1` [GLIBORNURIDE], the AC50 in assay [7], in assay [2], in assay [8], in assay [3], in assay [4] and in assay [5] was more than 30 µM in each case.
For the compound `COc1cc(N)cn[n+]1-c1ccccc1` [AMEZINIUM METILSULFATE], the AC50 in assay [7] was 9.1 µM; in assay [2] it was more than 30 µM; in assay [8], more than 30 µM; in assay [3], more than 30 µM; in assay [4], more than 30 µM; in assay [5] it was more than 30 µM.

One may read the AC50 as the midpoint of the concentration-response curve, whichever way the signal moves. Low values mean greater potency, high ones weaker potency.
